We go through two molecules from patent publication US12503436B2, “Compounds and compositions for treating conditions associated with STING activity” (NOVARTIS PHARMA AG, priority 2021, dated 2025).

pEC50: −log10 of the molar value.

This experiment addresses STING (Homo sapiens, UniProt Q86WV6, G230A/H232R/R293Q/R71H). In words: STING reporter assay in THP1-Dual KO-IFNAR2 cells (2′3′cGAMP stimulation, luciferase reporter). The format is cell-based. Conditions: 15 μM 2′3′cGAMP stimulation, 24 h, read-out: Pharmaron, THP1_IFNAR2 STING 24 h Luci Normalized: GeoMean EC50. In outline: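 EC50 from secreted luciferase (QUANTI-Luc Plus luminescence of supernatant) after 24 h at 37 °C, 5% CO2. Cells: THP1-Dual KO-IFNAR2, treated with compound (0.0017-100 μM final) plus lipofected 2′3′cGAMP at 15 μM final.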

Sequence of STING (Q86WV6 whole entry R71H/G230A/H232R/R293Q): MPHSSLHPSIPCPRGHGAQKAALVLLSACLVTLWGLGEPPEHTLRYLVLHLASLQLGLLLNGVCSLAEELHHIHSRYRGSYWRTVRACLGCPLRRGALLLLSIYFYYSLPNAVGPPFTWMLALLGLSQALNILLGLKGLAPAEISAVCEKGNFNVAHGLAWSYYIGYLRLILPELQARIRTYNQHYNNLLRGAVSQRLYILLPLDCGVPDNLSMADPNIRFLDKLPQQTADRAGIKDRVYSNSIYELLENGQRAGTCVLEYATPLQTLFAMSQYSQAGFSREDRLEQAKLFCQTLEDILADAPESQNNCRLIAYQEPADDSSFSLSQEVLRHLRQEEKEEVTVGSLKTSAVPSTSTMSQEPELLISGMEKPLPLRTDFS

For the molecule `CC(=O)Nc1c[nH]c2cc(Br)c(OCCc3ccc(C(F)(F)F)cc3)cc12` [Compound 173, N-(6-bromo-5-(4-(trifluoromethyl)phenethoxy)-1H-indol-3-yl)acetamide], the pEC50 is 4.00 to 5.30.

Consider `CC1(F)CC(C(=O)Nc2c[nH]c3ccc(O[C@H]4C[C@H](c5ccc(C(F)(F)F)cc5)C4)cc23)C1` (stereo partly drawn) [Compound 469, 3-fluoro-3-methyl-N-{5-[(1R,3R)-3-[4-(trifluoromethyl)phenyl]cyclobutoxy]-1H-indol-3-yl}cyclobutane-1-carboxamide], for which the pEC50 was 6.00 to 6.70.
